From PubChem BioAssay AID651573 (The Scripps Research Institute Molecular Screening Center, 2012)
The source made the active and inactive calls.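 The calls were made as follows: active = percent growth at or below 50%, meaning growth inhibited by at least half; inactive = percent growth above 50%.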

Key:
Experiment in all cases: growth inhibition across NCI60 tumor lines, profiling panel, STAT3 inhibitor project, cell-based, NCI60 one-dose, 10 µM (AID 651573)
[1] = tested on: Renal Cancer 786-0; conditions: SRB absorbance, 48 h, at 10 µM, active compounds read low
[2] = tested on: Non-Small Cell Lung Cancer NCI-H460; conditions: SRB absorbance, 48 h, at 10 µM, active compounds read low
[3] = tested on: Renal Cancer TK-10; conditions: SRB absorbance, 48 h, at 10 µM, active compounds read low
[4] = tested on: Ovarian Cancer SK-OV-3; conditions: SRB absorbance, 48 h, at 10 µM, active compounds read low
[5] = tested on: Prostate Cancer DU-145; conditions: SRB absorbance, 48 h, at 10 µM, active compounds read low
[6] = tested on: Breast Cancer BT-549; conditions: SRB absorbance, 48 h, at 10 µM, active compounds read low, 0 = no net growth, negative = cell kill
[7] = tested on: Melanoma UACC-62; conditions: NCI60 cancer cell panel growth, SRB absorbance, 48 h, at 10 µM, active compounds read low, 0 = no net growth, negative = cell kill
[8] = tested on: Melanoma SK-MEL-5; conditions: NCI60 cancer cell panel growth, SRB absorbance, 48 h, at 10 µM, active compounds read low
[9] = tested on: CNS Cancer SNB-19; conditions: SRB absorbance, 48 h, at 10 µM, active compounds read low
[10] = tested on: Melanoma MDA-MB-435; conditions: NCI60 cancer cell panel growth, SRB absorbance, 48 h, at 10 µM, active compounds read low
[11] = tested on: Non-Small Cell Lung Cancer NCI-H226; conditions: SRB absorbance, 48 h, at 10 µM, active compounds read low
[12] = tested on: Leukemia MOLT-4; conditions: NCI60 cancer cell panel growth, SRB absorbance, 48 h, at 10 µM, active compounds read low
[13] = tested on: Melanoma SK-MEL-2; conditions: NCI60 cancer cell panel growth, SRB absorbance, 48 h, at 10 µM, active compounds read low
[14] = tested on: CNS Cancer SF-268; conditions: SRB absorbance, 48 h, at 10 µM, active compounds read low
[15] = tested on: Breast Cancer MDA-MB-468; conditions: SRB absorbance, 48 h, at 10 µM, active compounds read low
[16] = tested on: Melanoma SK-MEL-28; conditions: NCI60 cancer cell panel growth, SRB absorbance, 48 h, at 10 µM, active compounds read low
[17] = tested on: Breast Cancer MDA-MB-231/ATCC; conditions: SRB absorbance, 48 h, at 10 µM, active compounds read low
[18] = tested on: Renal Cancer CAKI-1; conditions: SRB absorbance, 48 h, at 10 µM, active compounds read low
[19] = tested on: Breast Cancer HS 578T; conditions: SRB absorbance, 48 h, at 10 µM, active compounds read low
[20] = tested on: Leukemia K-562; conditions: NCI60 cancer cell panel growth, SRB absorbance, 48 h, at 10 µM, active compounds read low
[21] = tested on: Leukemia SR; conditions: NCI60 cancer cell panel growth, SRB absorbance, 48 h, at 10 µM, active compounds read low
[22] = tested on: Non-Small Cell Lung Cancer HOP-92; conditions: SRB absorbance, 48 h, at 10 µM, active compounds read low, 0 = no net growth, negative = cell kill
[23] = tested on: Prostate Cancer PC-3; conditions: SRB absorbance, 48 h, at 10 µM, active compounds read low
[24] = tested on: Colon Cancer KM12; conditions: SRB absorbance, 48 h, at 10 µM, active compounds read low
[25] = tested on: Ovarian Cancer OVCAR-8; conditions: SRB absorbance, 48 h, at 10 µM, active compounds read low
[26] = tested on: Non-Small Cell Lung Cancer EKVX; conditions: SRB absorbance, 48 h, at 10 µM, active compounds read low
[27] = tested on: Melanoma UACC-257; conditions: NCI60 cancer cell panel growth, SRB absorbance, 48 h, at 10 µM, active compounds read low
[28] = tested on: Non-Small Cell Lung Cancer NCI-H522; conditions: SRB absorbance, 48 h, at 10 µM, active compounds read low
[29] = tested on: Renal Cancer RXF 393; conditions: SRB absorbance, 48 h, at 10 µM, active compounds read low
[30] = tested on: CNS Cancer SNB-75; conditions: SRB absorbance, 48 h, at 10 µM, active compounds read low
[31] = tested on: Melanoma M14; conditions: NCI60 cancer cell panel growth, SRB absorbance, 48 h, at 10 µM, active compounds read low
[32] = tested on: Renal Cancer A498; conditions: SRB absorbance, 48 h, at 10 µM, active compounds read low
[33] = tested on: Non-Small Cell Lung Cancer HOP-62; conditions: SRB absorbance, 48 h, at 10 µM, active compounds read low, 0 = no net growth, negative = cell kill
[34] = tested on: Ovarian Cancer NCI/ADR-RES; conditions: SRB absorbance, 48 h, at 10 µM, active compounds read low
[35] = tested on: Colon Cancer COLO 205; conditions: SRB absorbance, 48 h, at 10 µM, active compounds read low, 0 = no net growth, negative = cell kill
[36] = tested on: Colon Cancer HCC-2998; conditions: SRB absorbance, 48 h, at 10 µM, active compounds read low
[37] = tested on: Breast Cancer MCF7; conditions: SRB absorbance, 48 h, at 10 µM, active compounds read low
[38] = tested on: Colon Cancer HCT-15; conditions: SRB absorbance, 48 h, at 10 µM, active compounds read low
[39] = tested on: Non-Small Cell Lung Cancer A549/ATCC; conditions: SRB absorbance, 48 h, at 10 µM, active compounds read low
[40] = tested on: Colon Cancer HCT-116; conditions: SRB absorbance, 48 h, at 10 µM, active compounds read low
[41] = tested on: Leukemia RPMI-8226; conditions: NCI60 cancer cell panel growth, SRB absorbance, 48 h, at 10 µM, active compounds read low
[42] = tested on: Non-Small Cell Lung Cancer NCI-H23; conditions: SRB absorbance, 48 h, at 10 µM, active compounds read low
[43] = tested on: CNS Cancer U251; conditions: SRB absorbance, 48 h, at 10 µM, active compounds read low
[44] = tested on: Renal Cancer SN12C; conditions: SRB absorbance, 48 h, at 10 µM, active compounds read low
[45] = tested on: Leukemia CCRF-CEM; conditions: NCI60 cancer cell panel growth, SRB absorbance, 48 h, at 10 µM, active compounds read low
[46] = tested on: Melanoma LOX IMVI; conditions: NCI60 cancer cell panel growth, SRB absorbance, 48 h, at 10 µM, active compounds read low
[47] = tested on: CNS Cancer SF-295; conditions: SRB absorbance, 48 h, at 10 µM, active compounds read low
[48] = tested on: Ovarian Cancer OVCAR-3; conditions: SRB absorbance, 48 h, at 10 µM, active compounds read low
[49] = tested on: Colon Cancer SW-620; conditions: SRB absorbance, 48 h, at 10 µM, active compounds read low, 0 = no net growth, negative = cell kill
[50] = tested on: Melanoma MALME-3M; conditions: NCI60 cancer cell panel growth, SRB absorbance, 48 h, at 10 µM, active compounds read low
[51] = tested on: Non-Small Cell Lung Cancer NCI-H322M; conditions: SRB absorbance, 48 h, at 10 µM, active compounds read low
[52] = tested on: Ovarian Cancer OVCAR-4; conditions: SRB absorbance, 48 h, at 10 µM, active compounds read low

COc1ccc(C(=O)C2CCN(c3ncnc4sccc34)CC2)cc1
percent growth [1]: 72.4% (inactive)
percent growth [2]: 71% (inactive)
percent growth [3]: 73.3% (inactive)
percent growth [4]: 89.9% (inactive)
percent growth [5]: 98.8% (inactive)
percent growth [6]: 53.4% (inactive)
percent growth [7]: 52.7% (inactive)
percent growth [8]: 26.5%
percent growth [9]: 64.8% (inactive)
percent growth [10]: 66.6% (inactive)
percent growth [11]: 88.8% (inactive)
percent growth [12]: 57.7% (inactive)
percent growth [13]: 76% (inactive)
percent growth [14]: 85.4% (inactive)
percent growth [15]: 18.9%
percent growth [16]: 105% (inactive)
percent growth [17]: 77.8% (inactive)
percent growth [18]: 66.4% (inactive)
percent growth [19]: 93.6% (inactive)
percent growth [20]: 41.4%
percent growth [21]: 47.9%
percent growth [22]: 61.7% (inactive)
percent growth [23]: 76.9% (inactive)
percent growth [24]: 87.9% (inactive)
percent growth [25]: 64% (inactive)
percent growth [26]: 34.9%
percent growth [27]: 63.7% (inactive)
percent growth [28]: 49.2%
percent growth [29]: 102% (inactive)
percent growth [30]: 104% (inactive)
percent growth [31]: 78.5% (inactive)
percent growth [32]: 91.7% (inactive)
percent growth [33]: 91.9% (inactive)
percent growth [34]: 43.5%
percent growth [35]: 88.2% (inactive)
percent growth [36]: 82.3% (inactive)
percent growth [37]: 55.4% (inactive)
percent growth [38]: 72.4% (inactive)
percent growth [39]: 74.5% (inactive)
percent growth [40]: 34.4%
percent growth [41]: 27.7%
percent growth [42]: 53.4% (inactive)
percent growth [43]: 77.5% (inactive)
percent growth [44]: 71.2% (inactive)
percent growth [45]: 42.3%
percent growth [46]: 40.1%
percent growth [47]: 57.1% (inactive)
percent growth [48]: 97.1% (inactive)
percent growth [49]: 90.8% (inactive)

COc1ccc(CC2CCN(c3ncnc4sccc34)CC2)cc1
percent growth [1]: 65.6% (inactive)
percent growth [2]: 62.4% (inactive)
percent growth [3]: 80.4% (inactive)
percent growth [4]: 87.5% (inactive)
percent growth [50]: 127% (inactive)
percent growth [5]: 99.4% (inactive)
percent growth [6]: 56% (inactive)
percent growth [7]: 54.8% (inactive)
percent growth [8]: 31.8%
percent growth [9]: 69.3% (inactive)
percent growth [10]: 66.9% (inactive)
percent growth [11]: 82% (inactive)
percent growth [12]: 66% (inactive)
percent growth [13]: 71.3% (inactive)
percent growth [14]: 93.2% (inactive)
percent growth [15]: 21.3%
percent growth [16]: 108% (inactive)
percent growth [17]: 79.8% (inactive)
percent growth [18]: 66.3% (inactive)
percent growth [19]: 90.1% (inactive)
percent growth [20]: 41.1%
percent growth [21]: 72.5% (inactive)
percent growth [22]: 75.4% (inactive)
percent growth [23]: 81.5% (inactive)
percent growth [24]: 91.7% (inactive)
percent growth [25]: 65.4% (inactive)
percent growth [26]: 39.9%
percent growth [27]: 67.2% (inactive)
percent growth [28]: 48.5%
percent growth [29]: 108% (inactive)
percent growth [30]: 100% (inactive)
percent growth [31]: 87.5% (inactive)
percent growth [32]: 96.1% (inactive)
percent growth [33]: 93.6% (inactive)
percent growth [34]: 43.4%
percent growth [35]: 95% (inactive)
percent growth [36]: 88.5% (inactive)
percent growth [37]: 55.5% (inactive)
percent growth [38]: 73.7% (inactive)
percent growth [51]: 66.6% (inactive)
percent growth [39]: 64.2% (inactive)
percent growth [40]: 34.9%
percent growth [52]: 50.7% (inactive)
percent growth [41]: 25.4%
percent growth [42]: 46.8%
percent growth [43]: 73.2% (inactive)
percent growth [44]: 72.9% (inactive)
percent growth [45]: 51% (inactive)
percent growth [46]: 34.4%
percent growth [47]: 59% (inactive)
percent growth [48]: 94.1% (inactive)
percent growth [49]: 86.9% (inactive)
